According to US11530196B2, “Pyrimidine compound acting on EGFR and ERBB2” (CHINA RESOURCES PHARMACEUTICAL HOLDINGS COMPANY LIMITED, priority 2019, dated 2022):

Key:
[1] = system: human lung cancer NCI-H1975 subcutaneous xenograft tumor; assay: NCI-H1975 subcutaneous xenograft tumor BALB/c nude mouse model; format: in vivo, BALB/c nude mice
Description: Human lung cancer NCI-H1975 cells were cultured in vitro in a monolayer under the conditions of 1640 medium with 10% fetal bovine serum, 1% double antibodies and incubated at 37° C. in a 5% CO2 incubator. Routine treatment passages were performed twice a week. When the cell saturation was 80%-90% and the number reached the required level, the cells were collected, counted, and inoculated.
BALB/c nude mice, female, 6-8 weeks old, weighing 18-22 g. Provided by Shanghai Xipuer-Bikai Laboratory Animal Co., Ltd. or other qualified suppliers.
Tumor tissue was collected from H1975 tumor-bearing mice of human lung cancer xenograft model, cut into 2-3 mm diameter tumor blocks and inoculated subcutaneously at the right anterior scapula of Balb/c nude mice. When the average tumor volume was 145 mm^3, the tumors were randomly grouped according to their size, and the day of grouping was defined as day 0.
The experimental index was to examine whether tumor growth was inhibited, delayed or cured. Tumor diameters were measured with vernier calipers twice a week. The calculation formula of tumor volume was: V=0.5a×b^2, wherein a and b represented the long and short diameters of the tumor, respectively. The antitumor efficacy of the compounds was evaluated by TGI (%) or relative tumor proliferation rate T/C (%). TGI (%), reflecting the tumor growth inhibition rate. Calculation of TGI (%): TGI (%)=[(1−(average tumor volume at the end of administration of a treatment group−average tumor volume at the beginning of administration of this treatment group))/(average tumor volume at the end of treatment in the solvent control group−average tumor volume at the beginning of treatment of the solvent control group)]×100%. Relative tumor proliferation rate T/C (%): The calculation formula was as follows: T/C %=TRTV/CRTV×100% (TRTV: RTV in the treatment group; CRTV: RTV in the negative control group). The relative tumor volume (RTV) was calculated according to the results of tumor measurement, and the formula was RTV=Vt/V0, wherein V0 was the average tumor volume measured at the time of group administration (i.e., d0), and Vt was the average tumor volume at a certain measurement, TRTV and CRTV were taken on the same day. After the experiment, the tumor weight will be detected, and the percentage of T/Cweight will be calculated. Tweight and Cweight represented the tumor weight of the administration group and the solvent control group, respectively.

[2] = molecular target: Ba/F3 EGFR-V769_D770insASV (Homo sapiens, UniProt P00533, DUP767-769, cells depend on it); assay: Anti-proliferation against Ba/F3 exon 20 insertion mutant cells (ASV); format: cell-based, mouse; settings: CTG, 72 hours, read-out: Mutant cells IC50 (anti-proliferation)
Sequence of Ba/F3 EGFR-V769_D770insASV (P00533 with tags, fused parts or gaps DUP767-769): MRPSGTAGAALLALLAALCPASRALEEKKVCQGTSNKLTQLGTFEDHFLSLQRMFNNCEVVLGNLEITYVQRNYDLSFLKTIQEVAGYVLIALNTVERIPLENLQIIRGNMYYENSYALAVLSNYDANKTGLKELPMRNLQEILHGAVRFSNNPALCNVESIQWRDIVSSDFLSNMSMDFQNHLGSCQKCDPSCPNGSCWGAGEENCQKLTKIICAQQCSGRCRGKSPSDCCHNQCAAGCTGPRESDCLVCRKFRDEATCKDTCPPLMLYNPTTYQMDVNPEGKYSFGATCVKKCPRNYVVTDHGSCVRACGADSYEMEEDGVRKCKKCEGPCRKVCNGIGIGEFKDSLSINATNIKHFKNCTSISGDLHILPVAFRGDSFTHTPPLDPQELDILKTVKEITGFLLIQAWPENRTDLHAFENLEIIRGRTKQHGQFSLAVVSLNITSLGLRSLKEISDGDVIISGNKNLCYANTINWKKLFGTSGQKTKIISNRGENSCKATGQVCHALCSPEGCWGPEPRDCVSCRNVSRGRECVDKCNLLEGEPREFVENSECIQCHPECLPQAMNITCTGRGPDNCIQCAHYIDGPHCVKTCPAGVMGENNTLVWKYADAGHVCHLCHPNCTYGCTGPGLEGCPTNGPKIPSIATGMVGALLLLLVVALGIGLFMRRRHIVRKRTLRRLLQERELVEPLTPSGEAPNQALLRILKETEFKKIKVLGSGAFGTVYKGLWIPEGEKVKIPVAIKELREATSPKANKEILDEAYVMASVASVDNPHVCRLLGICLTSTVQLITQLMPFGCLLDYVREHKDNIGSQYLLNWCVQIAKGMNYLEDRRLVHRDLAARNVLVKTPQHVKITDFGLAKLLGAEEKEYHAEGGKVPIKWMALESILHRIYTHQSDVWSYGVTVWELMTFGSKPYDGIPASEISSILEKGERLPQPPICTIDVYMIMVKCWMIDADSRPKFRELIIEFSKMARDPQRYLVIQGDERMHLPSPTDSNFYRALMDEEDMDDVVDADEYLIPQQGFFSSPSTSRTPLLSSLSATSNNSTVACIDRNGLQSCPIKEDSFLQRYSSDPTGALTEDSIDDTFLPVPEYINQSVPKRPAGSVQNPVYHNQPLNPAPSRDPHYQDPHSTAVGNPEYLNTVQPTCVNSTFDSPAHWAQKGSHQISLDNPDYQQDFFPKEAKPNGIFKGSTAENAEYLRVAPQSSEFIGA
Description: RPMI1640 medium was purchased from Hyclone, FBS fetal bovine serum was purchased from GBICO, and trypsin-EDTA were both purchased from Giboco. DPBS was purchased from Corning, penicillin/streptomycin solution was purchased from Hyclone, and Cell-Titer Glo reagent was purchased from Promega (Cat. No. G7572). Ba/F3 EGFR-D770_N771insSVD, Ba/F3 EGFR-H773_V774insNPH, Ba/F3 EGFR-V769_D770insASV, BaF3 ERBB2 A775_G776 ins YVMA, the cell lines were constructed by Beijing Kang Yuan Bochuang Biotechnology Co., Ltd. Plate reading instrument: Envision (PerkinElmer).
Cells in logarithmic growth phase were harvested and cell counts were performed using a […]. Cell viability was detected by the Taipan Blue rejection assay. The cell concentration was adjusted; the cell suspension was added to a 96-well plate separately. Cells in 96-well plates were incubated overnight at 37° C., 5% CO2, and 95% humidity. […] The cell plate was placed at room temperature to stabilize the cold light signal, and the cold light values were read. The data were analyzed using GraphPad Prism 7.0 software, and a nonlinear S-curve regression was used to fit the data to derive the dose-effect curve from which the IC50 values were calculated. […]

[3] = system: HuPrime lung cancer LU0387 subcutaneous xenograft tumor; assay: HuPrime lung cancer LU0387 subcutaneous xenograft BALB/c nude mouse model; format: in vivo, BALB/c Nude mice
Description: The antitumor effects of the test drug in HuPrime® lung cancer LU0387 subcutaneous xenograft BALB/C nude mouse were evaluated.
BALB/c Nude mice, female, 7-8 weeks, HuPrime® lung cancer xenograft model LU0387 tumor-bearing mouse tumor tissue.
BALB/c nude mice were subcutaneously inoculated with HuPrime® model LU0387 tumor blocks to establish a human lung cancer subcutaneous transplantation tumor model. The test was divided into a solvent control group and a test drug group. The drug was administered by gavage, once daily for 21 days. Efficacy was evaluated based on relative tumor inhibition rate (TGI), and the safety was evaluated based on animal weight change and mortality.
Tumor diameters were measured with vernier calipers twice a week. The calculation formula of tumor volume was: V=0.5a×b^2, wherein a and b represented the long and short diameters of the tumor, respectively.
The antitumor efficacy of the compounds was evaluated by TGI (%) or relative tumor proliferation rate T/C (%).
Relative tumor proliferation rate T/C (%)=TRTV/CRTV×100% (TRTV: mean RTV in the treatment group; CRTV: mean RTV in the solvent control group).
The relative tumor volume (RTV) was calculated according to the results of tumor measurement. The calculation formula was RTV=Vt/V0, wherein V0 was the tumor volume measured at the time of group administration (i.e., D0), and Vt was the tumor volume corresponding to a certain measurement. TRTV and CRTV were taken on the same day.
TGI (%), reflecting the tumor growth inhibition rate. TGI (%)=[(1−(average tumor volume at the end of administration of a treatment group−average tumor volume at the beginning of administration of this treatment group))/(average tumor volume at the end of treatment in the solvent control group−average tumor volume at the beginning of treatment of the solvent control group)]×100%.

C=CC(=O)Nc1cc(Nc2ncc(C(=O)OC(C)C)c(-c3cn(OC)c4ccccc34)n2)c(OC)cc1N(C)CCN(C)C.CS(=O)(=O)O [Compound 1]
Tumor volume (Day 0) ([1]; Day 0 (grouping), mean ± standard error, n = 6): 153 ± 7 mm^3 | RTV ([1]; Day 20): 0.20 ± 0.10 | T/C ([1]; Day 20): 1.35% | TGI ([1]; Day 20): 105.3% | Tumor volume (Day 20) ([1]; Day 20, mean ± standard error, n = 6): 33 ± 16 mm^3 | GI50 [2]: 7 nM | Tumor volume (Day 0) ([3]; Day 0, mean ± standard error, n = 6): 122.13 ± 3.12 mm^3 | RTV ([3]; Day 20, gavage once daily): 0.14 ± 0.08 | T/C ([3]; Day 20, gavage once daily): 2% | TGI ([3]; Day 20, gavage once daily): 114% | Tumor volume (Day 20) ([3]; Day 20, gavage once daily): 16.97 ± 10.54 mm^3
